Test results as given in US20250082565A1, “ANTIOXIDANT COSMETIC COMPLEX, COSMETIC COMPOSITION, USE AND METHOD FOR COSMETIC TREATMENT” (Natura Cosméticos S.A., priority 2023, published 2025).

How the values were obtained:
[1] = Suppression of triplet species (laser flash photolysis); settings: Stern-Volmer model; 10 μM methylene blue, excitation 660 nm, argon purged; individual actives
Description: (§1) The excited state suppression ability was assessed by measuring the transient absorption of triplet states using flash photolysis and by singlet oxygen emission in the near infrared.
Triplet suppression: The SHB Laser Flash Photolysis system was used (FIG. 14). A laser pulse (10 mJ/pulse, 10-20 ns) impinges on the sample providing electronic excitation. To assess the formation and the lifetime of excited states or other reactive intermediates, the change in absorbance prior to and after electronic excitation of the sample is monitored by an optical beam (LED) as a function of time. It monitors the disappearance of the species in the fundamental state or the appearance of the excited or radical species. The laser beam is positioned at 90° to the monitoring beam. Shutters are used in both the excitation and monitoring beams to protect the sample from photolysis. The detector in this technique consists of a combination of filters and diode detector. The diode response is read on a digital oscilloscope (Tektronix 2230), which data is subsequently transferred to the microcomputer. The entire equipment is controlled by a microcomputer and the time resolution of the instrument is of about 50 ns. A Quantel Nd: YAG laser (2 w, 3 w Rainbow, pulsed at 3 ns, 80.1% power) was used. […] Readings were taken in a 2 mm×10 mm quartz cuvette. […]

[2] = Singlet oxygen suppression (emission at 1270 nm); settings: Stern-Volmer model; phosphorescence at 1270 nm in ethanol
Description: as §1
Singlet oxygen suppression: The detector (PMT Hamamatsu R5509—model PC176TSCE005) was cooled to −80° C. and set to 1500 V and the signals were acquired using a proprietary software from SHB Analytics GmbH (Germany). Excitation was performed by a Quantel Brilliant laser (2 w-3 w-Rainbow). Emission from the sample is filtered so that irradiation in the range of from […] is detected. A microcomputer is connected to the system and analysis of the transients is carried out using an ultra-fast acquisition plate. It is important to remember that luminescence emission at 1270 nm is characteristic of singlet oxygen, being the safest method of detecting the presence and reactivity of this species. […]
To assess the actives' ability of suppressing singlet oxygen (1O2), the near-infrared emission (1270 nm) was measured, which is characteristic of 1O2 and a golden standard for this detection. […]
The detector (PMT Hamamatsu-model H10330-45) was cooled to −80° C. and set to −800 V and the signals were acquired using a proprietary software from SHB Analytics GmbH (Germany). […] Sample emission is detected in the range of 1270±20 nm. […]

Q: Which “KSt (triplet suppression constant)” value [1] does the source give for CC1=C(/C=C/C(C)=C/C=C/C(C)=C/C=C/C=C(C)/C=C/C=C(C)/C=C/C2=C(C)CCCC2(C)C)C(C)(C)CCC1 [Beta-carotene] here?
A: The value was 0.16 ± 0.05 μg^−1μL.

Q: And the “KSV (singlet oxygen suppression constant)” value [2]?
A: The value was 30.5 × 10^4 mg^−1mLs^−1.
